Data as given in ChEMBL document CHEMBL4828771, “Discovery and Development of a Potent, Selective, and Orally Bioavailable CHK1 Inhibitor Candidate: 5-((4-((3-Amino-3-methylbutyl)amino)-5-(trifluoromethyl)pyrimidin-2-yl)amino)picolinonitrile” (J Med Chem, 2021).
Activity calls are given as the source filed them. The calls are words filed in the database; no cut-off is given here.

How the values were obtained:
MV4-11 = assay: Antitumor activity against human MV4-11 cells xenografted in po dosed mouse assessed as inhibition of tumor growth administered for 21 days measured twice every week relative to control; assay type: functional, organism-based; details: time 21.0 day
[1] = target: Ribosomal protein S6 kinase alpha-3 (Homo sapiens) (UniProt P51812); assay: Inhibition of wild type human RSK2 expressed in mammalian expression system assessed as protein activity at 0.5 uM relative to control; parameters: scale not given: the % may be the effect or the level left
[2] = target: T1, Serine/threonine-protein kinase Chk1 (Homo sapiens, UniProt O14757); assay: Inhibition of CHK1 (unknown origin) incubated for 1 hr in presence of ATP by HTRF assay
T1 sequence (O14757 whole entry): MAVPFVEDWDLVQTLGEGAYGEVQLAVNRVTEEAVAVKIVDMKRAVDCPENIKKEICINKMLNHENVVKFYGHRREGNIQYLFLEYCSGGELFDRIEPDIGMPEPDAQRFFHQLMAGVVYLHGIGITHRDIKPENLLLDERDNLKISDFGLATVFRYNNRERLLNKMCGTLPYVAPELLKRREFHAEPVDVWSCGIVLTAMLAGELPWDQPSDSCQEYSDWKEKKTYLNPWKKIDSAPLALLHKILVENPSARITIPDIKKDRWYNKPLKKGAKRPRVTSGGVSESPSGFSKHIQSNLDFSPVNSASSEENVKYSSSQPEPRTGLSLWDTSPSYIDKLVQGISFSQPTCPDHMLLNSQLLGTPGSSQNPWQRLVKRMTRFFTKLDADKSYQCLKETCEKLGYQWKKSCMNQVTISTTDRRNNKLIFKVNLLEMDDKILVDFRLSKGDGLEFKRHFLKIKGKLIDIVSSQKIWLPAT

[3] = target: T2, Serine/threonine-protein kinase DCLK3 (Homo sapiens) (UniProt Q9C098); assay: Inhibition of wild type human DCAMKL3 (M1 to G289 residue) expressed in bacterial expression system assessed as protein activity at 0.5 uM relative to control; parameters: scale not given: the % may be the effect or the level left
T2 sequence (whole entry): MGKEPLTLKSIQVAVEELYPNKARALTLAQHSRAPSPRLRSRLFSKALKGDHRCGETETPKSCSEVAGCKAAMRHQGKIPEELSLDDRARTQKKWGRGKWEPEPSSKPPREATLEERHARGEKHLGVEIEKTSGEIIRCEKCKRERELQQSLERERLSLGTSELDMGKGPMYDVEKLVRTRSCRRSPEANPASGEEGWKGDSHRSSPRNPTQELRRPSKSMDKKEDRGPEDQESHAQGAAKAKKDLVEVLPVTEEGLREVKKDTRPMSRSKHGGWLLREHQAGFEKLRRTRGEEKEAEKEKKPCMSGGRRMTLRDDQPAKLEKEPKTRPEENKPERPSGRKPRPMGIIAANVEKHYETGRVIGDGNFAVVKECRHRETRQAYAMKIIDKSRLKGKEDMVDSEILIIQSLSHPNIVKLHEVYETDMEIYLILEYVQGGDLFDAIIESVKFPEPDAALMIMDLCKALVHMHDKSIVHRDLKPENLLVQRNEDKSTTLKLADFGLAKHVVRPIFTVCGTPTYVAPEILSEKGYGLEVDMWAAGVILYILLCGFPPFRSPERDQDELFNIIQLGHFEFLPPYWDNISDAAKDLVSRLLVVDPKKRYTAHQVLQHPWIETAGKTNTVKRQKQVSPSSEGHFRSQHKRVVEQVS

A549 [4] = assay: Antiproliferative activity against human A549 cells incubated for 72 hrs by CCK8 assay; assay type: functional, cell-based
[5] = Selectivity ratio of Antiproliferative activity against human HT-29 cells to Antiproliferative activity against human HT-29 cells in presence of gemcitabine; assay type: functional
[6] = Tmax in ICR mouse at 20 mg/kg, po measured after 0.083 to 48 hrs by LC-MS/MS analysis; assay type: ADME, organism-based; details: in vivo, time 0.083-48 hrs
A549 [7] = assay: Antiproliferative activity against human A549 cells incubated for 72 hrs in presence of gemcitabine by CCK8 assay; assay type: functional, cell-based
[8] = target: T3, Serine/threonine-protein kinase Chk1 (Homo sapiens) (UniProt O14757); assay: Inhibition of CHK1 in human MV4-11 cells assessed as reduction in autophosphorylation at S296 residue incubated for 2 hrs by Western blot analysis; assay type: cell-based
T3 sequence (whole entry): T1 sequence (O14757 whole entry)

Mus musculus = assay: Downregulation of S296 phosphorylation in tumor of mouse xenografted with human HT-29 cells at 30 mg/kg, po dosed 5 days/week for 22 days by Western blot analysis; assay type: functional, organism-based; details: time 22.0 day

Ribosomal protein S6 kinase alpha-3 (Homo sapiens), sequence (P51812 whole entry): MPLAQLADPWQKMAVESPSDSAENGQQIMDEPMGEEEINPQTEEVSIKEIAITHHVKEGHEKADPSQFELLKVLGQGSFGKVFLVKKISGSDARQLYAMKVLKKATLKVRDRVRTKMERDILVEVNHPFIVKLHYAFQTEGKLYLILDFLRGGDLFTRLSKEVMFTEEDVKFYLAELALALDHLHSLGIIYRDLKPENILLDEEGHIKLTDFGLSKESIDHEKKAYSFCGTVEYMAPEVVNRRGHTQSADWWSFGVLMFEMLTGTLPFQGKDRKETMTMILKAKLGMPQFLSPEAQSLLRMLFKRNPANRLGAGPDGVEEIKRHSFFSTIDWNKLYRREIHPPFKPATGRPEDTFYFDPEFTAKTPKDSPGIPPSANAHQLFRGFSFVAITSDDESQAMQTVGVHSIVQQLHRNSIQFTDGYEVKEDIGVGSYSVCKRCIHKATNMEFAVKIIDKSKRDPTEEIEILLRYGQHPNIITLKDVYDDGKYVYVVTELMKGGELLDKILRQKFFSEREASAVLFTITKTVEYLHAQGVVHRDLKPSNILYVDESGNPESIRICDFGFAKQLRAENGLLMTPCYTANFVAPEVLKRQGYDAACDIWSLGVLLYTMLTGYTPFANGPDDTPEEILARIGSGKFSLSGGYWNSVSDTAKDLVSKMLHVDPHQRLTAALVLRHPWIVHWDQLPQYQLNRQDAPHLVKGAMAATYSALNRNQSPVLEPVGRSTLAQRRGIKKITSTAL

Activity [1]: 13%
IC50 [2]: 16.1 nM
Activity [3]: 7%
Tmax [6]: 4 h
inhibition [8]: Dose-Dependent Effect
SMILES: CC(C)(N)CCNc1nc(Nc2ccc(C#N)nc2)ncc1C(F)(F)F
Activity (MV4-11): Dose-Dependent Effect
Activity (A549 [4]): Active
Ratio [5]: 100
Activity (A549 [7]): Active
Activity (Mus musculus): Active
